According to article PMC4804213, “Human EAG channels are directly modulated by PIP2 as revealed by electrophysiological and optical interference investigations” (Scientific Reports, 2016):
Like-named read-outs stand apart in the source and are kept apart here.

How the values were obtained:
hEAG1 (Kv10.1, KCNH1) [1] = target: T1, hEAG1 (Kv10.1, KCNH1) (Homo sapiens, UniProt O95259); experiment: patch clamp, peak current inhibition at […] mV, Hill fit; type: cell-based
T1 construct: full length; untagged in pcDNA3.1 transiently in CHO cells (patch clamp); tetramer
T1 sequence (O95259 1-962 isoform O95259-2): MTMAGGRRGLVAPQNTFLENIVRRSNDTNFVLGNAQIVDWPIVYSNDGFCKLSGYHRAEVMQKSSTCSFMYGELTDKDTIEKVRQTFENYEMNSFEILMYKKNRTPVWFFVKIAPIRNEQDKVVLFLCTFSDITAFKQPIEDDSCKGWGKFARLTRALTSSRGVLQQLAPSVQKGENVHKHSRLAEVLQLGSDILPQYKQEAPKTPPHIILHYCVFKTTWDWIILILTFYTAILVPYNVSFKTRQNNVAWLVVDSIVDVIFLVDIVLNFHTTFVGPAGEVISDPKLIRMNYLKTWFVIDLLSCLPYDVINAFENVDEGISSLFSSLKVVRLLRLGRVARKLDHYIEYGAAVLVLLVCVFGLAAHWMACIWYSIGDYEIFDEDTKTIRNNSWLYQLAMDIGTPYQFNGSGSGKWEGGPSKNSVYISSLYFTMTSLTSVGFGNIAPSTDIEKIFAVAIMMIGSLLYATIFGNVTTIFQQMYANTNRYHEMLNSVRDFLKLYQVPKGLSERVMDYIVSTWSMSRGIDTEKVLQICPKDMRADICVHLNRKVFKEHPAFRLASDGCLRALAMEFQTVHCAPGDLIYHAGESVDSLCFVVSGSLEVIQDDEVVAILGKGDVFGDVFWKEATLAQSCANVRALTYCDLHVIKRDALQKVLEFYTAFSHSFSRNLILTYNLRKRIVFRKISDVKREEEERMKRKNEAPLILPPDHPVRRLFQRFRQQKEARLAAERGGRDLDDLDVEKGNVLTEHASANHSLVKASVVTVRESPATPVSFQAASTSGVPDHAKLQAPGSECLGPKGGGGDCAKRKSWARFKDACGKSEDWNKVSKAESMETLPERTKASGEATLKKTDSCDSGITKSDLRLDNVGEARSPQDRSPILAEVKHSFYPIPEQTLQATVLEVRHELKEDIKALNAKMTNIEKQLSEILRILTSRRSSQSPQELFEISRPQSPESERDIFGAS

hEAG1 (Kv10.1, KCNH1) [2] = target: T1, hEAG1 (Kv10.1, KCNH1); experiment: bio-layer interferometry, biotinylated FLAG-tagged channel on streptavidin sensor, Hill fit; type: binding; conditions: 200-s cumulative application epochs; PBS, 0.02% Tween-20, 0.1% BSA, pH 7.4; room temperature; brain-derived lipid of mixed acyl chains

## CCCCCCCC(=O)OC[C@H](COP(=O)(O)O[C@@H]1[C@H](O)[C@H](O)[C@@H](OP(=O)(O)O)[C@H](OP(=O)(O)O)[C@H]1O)OC(=O)CCCCCCC [diC8-PIP2]
hEAG1 (Kv10.1, KCNH1) [1]
  IC50: 18600 ± 600 nM

## PIP2
hEAG1 (Kv10.1, KCNH1) [2]
  Kd: 350 ± 40 nM
hEAG1 (Kv10.1, KCNH1) [1]; 200-s application to the intracellular side, peak current at 40 mV, room temperature, brain-derived lipid of mixed acyl chains
  IC50: 350 ± 10 nM
